The text below walks through data of patent US20220281802A1, “COMPOUNDS, PHARMACEUTICAL COMPOSITIONS, AND METHODS OF THEIR USE IN THE INHIBITION OF INTERACTION BETWEEN IL18 AND IL18R” (Beth Israel Deaconess Medical Center, Inc., priority 2019, published 2022).

Read-outs that look alike come from different tables or passages of the source.

For series [1], the system named is IFN-γ gene expression in NK92 cells. Particulars: Kalina et al., J. Immunol. 2000; positive control; cited from earlier work.
In series [2] the test system is human saphenous vein segments. Briefly: Cytokine expression in human saphenous vein ex vivo (LPS challenge, multiplex ELISA). The class given is cell-based. Particulars: LPS 100 ng/ml + compound 10 μM, 18 hours, culture supernatant. The source says:
Example 2. Cytokine Expression in Human Saphenous Vein Ex Vivo
In this example, a cytokine storm/inflammation common to many vascular conditions has been modeled by challenging human saphenous vein segments with lipopolysaccharide (LPS). Discarded human saphenous vein samples were collected from patients undergoing peripheral bypass grafting.
Samples were subjected to Human (h) TheRPA (Therapeutic Responses Predictor Assay) which is based on ex-vivo treatment of biopsies (explant cultures). The tissues were transferred to the lab within 30 min of their harvesting and cultured in DMEM+10% FBS+1% antibiotic/antimycotic (DMEM plus glucose, glutamine, sodium pyruvate: Gibco 11995-065; Heat Inactivated FBS: Gibco 16140-089; Antibiotic-Antimycotic: Gibco 15240-096) in the presence of vehicle, LPS (100 ng/ml) or LPS (100 ng/ml)+compound 1/compound 10/compound 15 (10 μM). After 18 hours, culture supernatants were collected and kept at −80° C. Cytokine levels in cell culture supernatant were measured by multiplex ELISA (Milliplex map human cytokine/chemokine magnetic bead kit from Millipore).
(In general: In an ELISA, binding on a coated surface is turned into a signal by an enzyme label.)

In series [3] the target is T1, IL18 (Homo sapiens, UniProt Q14116).
T1 sequence (Q14116 37-193): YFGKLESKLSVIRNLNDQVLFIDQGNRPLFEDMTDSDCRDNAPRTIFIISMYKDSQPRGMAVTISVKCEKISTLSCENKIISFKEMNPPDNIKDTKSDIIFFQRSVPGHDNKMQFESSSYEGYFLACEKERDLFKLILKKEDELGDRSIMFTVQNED
Briefly: Microscale Thermophoresis (MST) binding. More on the design: Recombinant IL18 was fluorescently labelled using the lysine reactive Pico RED NT647 dye. On the procedure:
Microscale Thermophoresis
Recombinant IL18 was fluorescently labelled using the lysine reactive Pico RED NT647 dye from NanoTemper Technologies and stored in a PBS buffer containing 0.05% TWEEN (Buffer A). Stock concentration of labelled IL18 was […]. Working concentrations of IL18 were diluted in Buffer A to 10, 40, or 50 nM. Except for the positive control, IL18BP, stock concentration for all compounds, or ligands, was 10-25 mM in 100% DMSO. Ligands were diluted in Buffer A to working concentrations of 50-500 μM. Containing 0.8-2% DMSO. Stock concentration of IL8BP, was 50 μM, stored in 20 mM Tris-HI buffer (pH 8.0) containing 0.4 M Urea and 10% glycerol (Buffer B). Prior to MST experiments being performed 16 preparations of two-fold serial dilutions of ligand in uniform buffer, starting with the working Uigand concentration, were incubated with equal volumes of a fixed concentration of labelled IL8. After 30 minutes incubation at room temperature, 16 Monolith NT. 15 standard capillaries were loaded with 10 μl volumes of each of the ligand/IL18 preparations. Tests described in Results were run at 3700.
Experiments were performed on a Monolith NT.115Pico machine (NanoTemper Technologies GmbH, Germany). Data quality and analysis and graphic rendering were performed using MO.Affinity Analysis v2.3 software from NanoTemper technologies. Evaluation strategy for all analyses was standardized to measure relative change of fluorescence (FNorm %) over a 2.5 second of laser induced temperature shift per capillary. Statistical analysis was performed using NanoTemper's MOControl software. The results of this assay for compounds 1, 10, and 15 are shown in FIGS. 7, 8, 9A, 9B, and […] and Table 3 describes the MST assay conditions.

For series [4], the system named is Primary human saphenous vein smooth muscle (SMC). Briefly: Alamar Blue assay for cell toxicity and proliferation, smooth muscle cells. Particulars: 10 nM-10 μM, up to 72 hours; FIGS. 3D-3F, 4A, 4B. For orientation: Resazurin is reduced to fluorescent resorufin, in cell work by metabolically active cells.
Description: Primary human saphenous vein smooth muscle (SMC) and endothelial cells (EC) were left untreated or treated with inhibitor compounds (10 nM-10 μM) for a period of 3-4 days. Cell proliferation was measured using our previously published Alamar Blue Assay (Monahan et al., FASEB J., 23:557-564, 2009; Yoshida et al., J. Am. Coll. Surg. 213:668-67, 2011).
The subject of series [5] is IL18. The experiment in a line: HEK-Blue IL18 cell reporter assay (SEAP). Particulars: Phase I; HEK-Blue IL18 cells, co-treated with recombinant human IL18 15 pM-100 pM, 18 hours; FIGS. 1A-1D. The class given is cell-based. On the procedure: HEK-Blue IL18 Cell Reporter Assay
HEK-Blue IL18 Cells (Invivogen California, USA), are a derivative of HEK293 cells that have been stably transfected with IL18Rα/IL18RAP genes and a SEAP reporter gene that is expressed and secreted in specific response to IL18. Cells were grown in […] tissue culture flasks with DMEM culture medium containing 4.5 g/L glucose, 10% (v/v) heat-inactivated fetal bovine serum, 50 μ/mL penicillin, 50 μg/mL streptomycin, 100 μg/mL Normocin and 2 mM L-glutamine at 37° C. in 5% CO2.
Stock concentration of IL18 was 750 μM stored in Tris-HCl buffer at −80° C. For treatment use, compounds were diluted in sterile PBS to 100 times the intended treatment concentration and administered into wells containing 198 μl media at volumes of 2 μl. Total DMSO contents for all vehicles was less than 0.02% prior to treatment, and less than 0.0002% within wells following treatment.
HEK-Blue IL18 cells were transferred from flasks and seeded at 40-50% confluency on 96-well culture plates 6 hours prior to treatment.
Phase I: Cells were treated with compounds at concentrations of […], 7.5 pM, and 1.5 pM, with three replicate wells for each concentration, and six replicate wells with no compound treatment (NT). All wells were then immediately co-treated with recombinant human IL18 at one concentration between 15 pM-100 pM. Following treatments, cells were incubated at 37° C. in 5% CO2 for 18 hours. Cell confluency typically reached 70-80% (˜80,000-100,000 cells per well) by this point, 24 hours after seeding.
To detect SEAP activity, 20 μL supernatant from each well was transferred and mixed with 180 μl alkaline phosphatase detection medium (QUANTi-Blue, InvivoGen, California, USA), in a separate 96-well plate and incubated for 3 hours at room temperature. Supernatant SEAP activity was measured by reading the optical density (OD) at 640 nm using a spectrophotometer. OD values were standardized to NT mean=1.
Statistical analysis was performed GraphPad Prism (California, USA) software. One-Way analysis of variance (ANOVA) with Dunnett's post-hoc analysis was used to determine significant variation between treatment and control (NT) groups treated only with IL18.
A general note: In a reporter assay the amount or activity of a reporter protein is the signal.

For series [6], the system named is IFN-γ gene expression in NK92 cells. The experiment in a line: IFN-γ gene expression induction in NK-92 cells (qRT-PCR). The class given is cell-based. Particulars: 24 hours. On the procedure: IFN-γ Gene Expression Induction in NK-92 Cells
IFN-γ gene and protein expression induction is a standard to measure IL-18 activity in NK92 cells (Kalina et al., J. Immunol. 165:1307-1313, 2000).
NK92 cells were treated with 1 μM concentration of compounds 1, 10, or […]. […] 24 hours after treatment, total RNA was harvested and qRT-PCR was conducted using a previously published protocols (Raof et al., BMC Genomics, 17-20, 2016; Monahan et al., FASEB J., 23:557-564, 2009) to measure the gene expression of IFN-γ.

Series [7] has as its system Primary human saphenous vein endothelial cells (EC). Briefly: Alamar Blue assay for cell toxicity and proliferation, endothelial cells. Particulars: 10 nM-10 μM, up to 76 hours; FIGS. 3A-3C. Format: cell-based. From the text: Alamar Blue Assay for Cell Toxicity and Proliferation
For series [8], the target named is T1, IL18. Particulars: background statement; read-out: affinity for hIL18; cited from earlier work.
Setting [9] is: labelled IL18, 37.0° C., n 2, Table 3.
The mark [10] stands for this setting: FIG. 5, compound 1 μM, no treatment 1.06±0.38.
[11] abbreviates: FIG. 6, compound 1 μM, no treatment 1.33±0.85.

For the molecule `C[S+]([O-])c1ccc(-c2nc(-c3ccc(F)cc3)c(-c3ccncc3)[nH]2)cc1` (stereo not drawn) [Compound 1V], the “IFN-γ expression in NK92 cells (literature statement)” value in series [1] is listed as “known inhibitor of IFN-γ expression in NK92 cells”.
`Cc1ccc(Cc2ccc(C)c(N)c2)cc1N` [Compound 5]: in series [2], the IL-6 expression entry was “significantly inhibited”, the IL-8 expression result is recorded as “significantly inhibited” and the TNF expression entry is given as “significantly inhibited”.
As to `O=C1c2nn[nH]c2C(=O)c2nn[nH]c21` [Compound 10], the Kd in series [3] (FIGS. 9A-9C) was 2.27 nM. Also, in series [3] (setting [9]), the Kd came out at 2.27 nM. The “toxicity in SMC (Alamar Blue)” value in series [4] is on record as “no toxicity”. In series [2], the IL-6 expression entry is “significantly inhibited”, the IL-8 expression entry is listed as “significantly inhibited” and the TNF expression result is given as “significantly inhibited”. Besides, in series [5], the “IL-18 activity (SEAP reporter)” value is “significantly reduce IL-18 activity”.
As for “IL-18: Interleukin-18, pro-inflammatory cytokine used as stimulus of IFN-γ expression”, the values for the IFN-γ expression in series [6] (setting [10]) and in series [6] (setting [11]) were 5.52±3.43 and 7.9±7.23, respectively.
For the molecule `CC(C)c1ccc(NC(=N)NC(=N)N)cc1` [Compound 15], in series [6] (setting [10]), the IFN-γ expression is on record as 0.99±0.38. Moreover, the values for the Kd in series [3] (FIG. 9C) and in series [3] (setting [9]) were 5600 nM and 5640 nM, respectively. Moreover, the “toxicity in SMC (Alamar Blue)” value in series [4] is “no toxicity”. The “IL-18 activity (SEAP reporter)” value in series [5] is on record as “significantly reduce IL-18 activity”. Besides, the “toxicity in EC (Alamar Blue)” value in series [7] is on record as “no toxicity”.
In series [6] (setting [11]), `Nc1cccc(Cc2cccc(N)c2)c1` [Compound 1] displayed an IFN-γ expression of 0.04±0.02. The Kd in series [3] (FIGS. 9A-9C) came to 60.6 nM. For the same molecule, in series [3] (setting [9]), the Kd is 60.6 nM. Further, in series [2], the IL-6 expression result is recorded as “significantly inhibited”, the IL-8 expression result is recorded as “significantly inhibited” and the TNF expression entry is reported as “significantly inhibited”. Also, the “IL-18 activity (SEAP reporter)” value in series [5] is reported as “significantly reduce IL-18 activity”.

B1: IL18BP: Interleukin-18 Binding Protein, naturally occurring IL18 antagonist, soluble protein with a single Ig domain; positive control (protein, UniProt O95998 31-194, looked up)
Interleukin-18-binding protein: TPVSQTTTAATASVRSTKDPCPSQPPVFPAAKQCPALEVTWPEVEVPLNGTLSLSCVACSRFPNFSILYWLGNGSFIEHLPGRLWEGSTSRERGSTGTQLCKALVLEQLTPALHSTNFSCVLVDPEQVVQRHVVLAQLWAGLRATLPPTQEALPSSHSSPQQQG
For B1, the values for the Kd in series [3] (FIGS. 9A-9C), in series [3] (setting [9]) and in series [8] were 1.85 nM, 1.85 nM and 0.4 nM, respectively. Also, the “IL-18 activity (SEAP reporter)” value in series [5] is “significantly reduce IL-18 activity”.
